Assays:
[1] = tested on: DYT1 knockin (Tor1a^delGAG/+) murine embryonic fibroblasts (MEFs); assay: Untargeted LC/MS/MS proteomics of EVs from DYT1 MEFs exposed 24 hours to drug, compared with untreated DYT1 (Het) MEFs; format: cell-based, mouse
[2] = tested on: wild-type (WT) murine embryonic fibroblasts (MEFs); assay: microRNA-seq of EVs from WT MEFs treated with drug, compared with non-treated WT MEFs; format: cell-based, mouse; details: for ISRIB Direction Same as dE?: EVs of WT MEFs
Method: In addition to proteomic analysis, total RNA-seq and microRNA-seq was performed on RNA isolated in parallel from the EV samples of Cohort 2. As with the proteomic analysis, one biological replicate was prepared from 3 distinct biological clonal cell lines for each genotype. Here, EVs were isolated from conditioned cell culture media by 18 hour ultracentrifugation at 100,000 g. RNA was extracted using the Qiagen miRNeasy Micro Kit (Cat. No. 217084) according to the manufacturer's protocol. Two RNA fractions were extracted from each sample, one enriched in coding and non-coding RNA species>200 nt (“Total RNA” fraction) and one enriched for small RNAs<200 nt (“miRNA” fraction).
RNA samples were then submitted to the Duke Sequencing and Genomic Technologies shared resource for further quality control and sequencing. Samples were assessed for concentration and integrity by Qubit and Fragment Analyzer. The miRNA fractions were 4.16 ng/μL-47.57 ng/μL and total RNA fractions were 3.8 ng/μL-43.6 ng/μL. The small RNA library was prepared using the QIAseq miRNA Library Kit (Cat No./ID: 331505) and sequenced on the Illumina NextSeq 500 High-Output platform with 75 bp single-reads. The total RNA library was prepared using the Illumina TruSeq Stranded Total RNA-seq Kit with Ribozero Gold ribosomal RNA reduction and sequenced on the Illumina NovaSeq 6000 S1 platform with 100 bp paired-end reads. Sequencer lane pooling and read depth are attached in the Excel data summary (See “RNA QC” Tab).
Data processing and analysis were performed in collaboration with the Duke Genomic Analysis and Bioinformatics shared resource. RNA-seq data was processed using the TrimGalore toolkit (http://www.bioinformatics.babraham.ac.uk/projects/trim_galore), which employs Cutadapt(Martin M. (2011) EMBnet.journal. 17(1):10-12) to trim low quality bases and Illumina sequencing adapters from the 3′ end of the reads. Only reads that were 20 nt or longer after trimming were kept for further analysis. Reads were mapped to the mouse genome and transcriptome (Kersey P J, et al. (2012) Nucleic Acids Res. 40(Database issue):D91-97) using the STAR RNA-seq alignment tool (Dobin A, et al. (2013). Bioinformatics. 29(1):15-21). If the reads mapped to a single genomic location, then they were kept for subsequent analysis. Gene counts were compiled using the HTSeq tool (http://www-huber.embl.de/users/anders/HTSeq/). Only genes that had at least 10 reads in any given library were used in subsequent analysis. Normalization and differential expression was carried out using the DESeq26 Bioconductor (Huber W, et al. (2015) Nat Methods. 12(2):115-121) package with the R statistical programming environment (www.r-project.org). The false discovery rate was calculated to control for multiple hypothesis testing and p-values were adjusted to an FDR of 5%.
694 miRNAs were initially examined with respect to QC, genotype, RTV effects, and ISRIB effects. This subset was the “Full miRNA” subset. FIG. 9A and FIG. 9B show the RTV effect on EV composition in DYT1 cells compared to WT cells for 279 miRNAs, respectively.

WT TorsinA = details: cited from earlier work
[3] = ISRIB-treated vs non-treated WT MEF EVs

With `O=C(/C=C/c1ccccc1)NC(NC(=S)Nc1cccc2cccnc12)C(Cl)(Cl)Cl` (stereo not shown) [SAL, Salubrinal] as the molecule, how does the “SAL Direction Opposite ISRIB?” value ([1]; EV protein: ATP- binding cassette sub-family [?] member 1) read?
The value was “yes”.

And the “SAL Direction Opposite ISRIB?” value ([1]; EV protein: Nerine arginine-rich splicing factor [?])?
The value was “yes”.

What does the source list for `O=C(COc1ccc(Cl)cc1)NC1CCC(NC(=O)COc2ccc(Cl)cc2)CC1` (stereo not shown) [ISRIB]?
mmu-miR-147-5p: ISRIB Direction Same as dE? [2, 3]: yes; mmu-miR-147-5p: ISRIBvWT Z Score [2, 3]: −0.31; mmu-miR-181a-1-3p: ISRIBvWT Z Score [2, 3]: −0.20; mmu-miR-331-5p: ISRIBvWT Z Score [2, 3]: 0.56; mmu-miR-668-3p: ISRIBvWT Z Score [2, 3]: −1.49; mmu-miR-1930-5p: ISRIB Direction Same as dE? [2, 3]: yes; mmu-miR-1930-5p: ISRIBvWT Z Score [2, 3]: 0.71; mmu-miR-1943-5p: ISRIBvWT Z Score [2, 3]: −1.07; mmu-miR-1955-5p: ISRIBvWT Z Score [2, 3]: 1.21; mmu-miR-3072-5p: ISRIBvWT Z Score [2, 3]: 0.00; mmu-miR-3076-3p: ISRIBvWT Z Score [2, 3]: 0.25; mmu-miR-3088-3p: ISRIBvWT Z Score [2, 3]: −0.45; mmu-miR-6936-3p: ISRIBvWT Z Score [2, 3]: −0.38; mmu-miR-7224-3p: ISRIB Direction Same as dE? [2, 3]: yes; mmu-miR-7224-3p: ISRIBvWT Z Score [2, 3]: −1.07; mmu-miR-467d-3p: ISRIB Direction Same as dE? [2, 3]: yes; mmu-miR-467d-3p: ISRIBvWT Z Score [2, 3]: −0.71; ISRIB Direction Same as dE? ([2]; mmu-let-7f-5p): yes; ISRIB Direction Same as dE? ([2]; mmu-let-7i-5p): yes; ISRIB Direction Same as dE? ([2]; mmu-miR-30e-5p): yes; ISRIB Direction Same as dE? ([2]; mmu-miR-19b-3p): yes; ISRIB Direction Same as dE? ([2]; mmu-miR-22-3p): yes; ISRIB Direction Same as dE? ([2]; mmu-miR-26b-Sp): yes; ISRIB Direction Same as dE? ([2]; mmu-miR-30a-5p): yes; ISRIB Direction Same as dE? ([2]; mmu-miR-30c-5p): yes; ISRIB Direction Same as dE? ([2]; mmu-miR-31-5p): yes; ISRIB Direction Same as dE? ([2]; mmu-miR-34a-5p): yes; ISRIB Direction Same as dE? ([2]; mmu-miR-34c-5p): yes; ISRIB Direction Same as dE? ([2]; mmu-miR-93-5p): yes; ISRIB Direction Same as dE? ([2]; mmu-miR-96-5p): yes; ISRIB Direction Same as dE? ([2]; mmu-miR-103-3p): yes; ISRIB Direction Same as dE? ([2]; mmu-miR-125b-1-3p): yes; ISRIB Direction Same as dE? ([2]; mmu-miR-130b-3p): yes; ISRIB Direction Same as dE? ([2]; mmu-miR-135a-5p): yes; ISRIB Direction Same as dE? ([2]; mmu-miR-140-3p): yes; ISRIB Direction Same as dE? ([2]; mmu-miR-148a-3p): yes; ISRIB Direction Same as dE? ([2]; mmu-miR-182-5p): yes; ISRIB Direction Same as dE? ([2]; mmu-miR-183-5p): yes; ISRIB Direction Same as dE? ([2]; mmu-miR-187-3p): yes; ISRIB Direction Same as dE? ([2]; mmu-miR-192-5p): yes; ISRIB Direction Same as dE? ([2]; mmu-miR-199a-3p): yes; ISRIB Direction Same as dE? ([2]; mmu-miR-199b-3p): yes; ISRIB Direction Same as dE? ([2]; mmu-miR-296-3p): yes; ISRIB Direction Same as dE? ([2]; mmu-miR-298-5p): yes; ISRIB Direction Same as dE? ([2]; mmu-miR-344-3p): yes; ISRIB Direction Same as dE? ([2]; mmu-miR-362-3p): yes; ISRIB Direction Same as dE? ([2]; mmu-miR-362-5p): yes; ISRIB Direction Same as dE? ([2]; mmu-miR-532-5p): yes; ISRIB Direction Same as dE? ([2]; mmu-miR-542-5p): yes; ISRIB Direction Same as dE? ([2]; mmu-miR-671-5p): yes; ISRIB Direction Same as dE? ([2]; mmu-miR-1291): yes; ISRIB Direction Same as dE? ([2]; mmu-miR-3535): yes; ISRIB Direction Same as dE? ([2]; mmu-miR-5121): yes; ISRIB Direction Same as dE? ([2]; mmu-miR-30h-5p): yes; ISRIB Direction Same as dE? ([2]; mmu-miR-344d-3p): yes; subcellular localization of WT TorsinA (WT TorsinA): alter the normal subcellular localization of WT TorsinA in a way that was more similar to the distribution of dE TorsinA in DYT1
